{"source": "patent US8420692B1", "about": "“Heterocyclic and carbonate derivatives of NDGA and their use as new anti-HIV and anti-cancer agents” (The Johns Hopkins University, priority 2006, dated 2013)", "key": {"[1]": {"system": "colon cancer cell line HT29", "test": "MTT-based cytotoxicity / proliferation assay, HT29", "assay_type": "cell-based, human", "description": "(§1) The cytotoxicity of P4N against Vero cells and human cancer cells HEP3B, HT29 and MCF7 was analyzed using an MTT [3-(4,5-dimethylthiazol-2-yl)-2,5-diphenyltetrazolium bromide]-based assay (Sigma). The absorbance of OD570 was a measurement of formazon crystals solubilized in DMSO from metabolically active cells. Procedures were discussed in Huang R C C, et al. in Antiviral Res 58, 57-64 2003.^10\n(§2) We have previously shown that M4N arrests tumor cells growth at G2-M phase of the cell cycle by reducing the level of Cdc2 protein and kinase activity,^17,18 and induces apoptosis by suppressing survivin gene expression and protein stability and activating the mitochondrial apoptosis pathway.^17 M4N is able to reverse the multidrug resistance by inhibiting the Sp1-regulated MDR1 gene expression and preventing the synthesis of p-glycoprotein (Pgp).^24 To investigate the effect of water soluble NDGA derivative P4N on growth of the transformed cells, four cell lines, Vero cell (African green monkey kidney cells), human liver cancer line Hep3B, colon cancer cell line HT29, and human breast cancer line MCF-7 were selected for testing. The Vero cell line is aneuploid."}, "HSV-2": {"system": "HSV-2", "test": "Efficacy against HSV-2 in a mouse vaginal model", "assay_type": "in vivo", "conditions": "for Toxicity in animals: female mice treated locally with 10 mM", "description": "The efficacies of P4N against HSV-2 in a mouse vaginal model system have been examined. Progestin treated female CF-1 mice (10 per group) were infected with HSV-2 in the absence or presence of P4N (in PBS). At the end of three days, the vaginal lavages were collected from the washings of the vaginal regions. The status of the vaginal HSV-2 infection and replication were examined by their cytopathic effects on cultured human foreskin fibroblast cells. Monitoring and scoring were carried out by three persons independently. […] At 10 mM concentration only 2 of 10 mice were weakly infected."}, "[2]": {"test": "Stability in aqueous solution (time dependent UV spectra)", "assay_type": "physicochemical", "conditions": "HCl salts, 28 days at 20° C., FIG. 1", "description": "FIG. 1: Stability of Two NDGA Derivatives G4N and P4N(HCl salts) in Aqueous Solution. Time Dependent Changes in UV spectra showing (a) G4N is unstable and (b) meso-2,3-dimethyl-1,4-bis(3,4-[2-piperidino)ethoxyphenyl])butane (P4N) (compound 5b in Scheme 1) (day 1, 2, 8, 13, 28) is stable in Milli-Q water after 28 days at 20° C.\nThe new NDGA derivatives (Scheme 1) were found stable in aqueous solution; >99% of these compounds remained intact after 28 days (see FIG. 1(b)). In a sharp contrast, >96% G4N (4) decomposed in aqueous solution within 24 h (see FIG. 1(a))."}, "COS cells": {"system": "COS cells", "test": "Growth inhibition of untransfected COS cells", "assay_type": "cell-based", "conditions": "≦1 μM, FIG. 9", "description": "FIG. 9: Inhibition of HIV Tat-Regulated transactivation by Compound 5b P4N. The COS cells were co-transfected with a Tat-producing plasmid and a plasmid containing the HIV LTR linked to the SeAP reporter gene. Transfected cells were treated with various concentrations of 5b P4N. After 48 h, aliquots of media were removed and analysis of SeAP activity was performed. The percent inhibition of SeAP activity by 5b P4N ? was calculated in comparison with the percent of growth inhibition of untransfected COS cells by P4N ?"}, "[3]": {"system": "human breast cancer line MCF-7", "test": "MTT-based cytotoxicity / proliferation assay, MCF-7", "assay_type": "cell-based", "description": "as §1, §2"}, "[4]": {"system": "Vero cell (African green monkey kidney cells)", "test": "MTT-based cytotoxicity / proliferation assay, Vero", "assay_type": "cell-based", "conditions": "48 hrs, 37° C.", "description": "as §1, §2"}}, "note": "Structures can show the parent of a compound that is named as a salt.", "data": [{"smiles": "C[C@H](Cc1ccc(OCCN2CCCCC2)c(OCCN2CCCCC2)c1)[C@@H](C)Cc1ccc(OCCN2CCCCC2)c(OCCN2CCCCC2)c1", "note": "[Compound 5b, meso-2,3-Dimethyl-1,4-bis(3,4-[2-(piperidino)ethoxyphenyl])butane Tetrakishydrochloride Salt]", "values": [{"measurement": "IC50", "setting": "[1]; 48 hrs, 37° C., read-out: IC50, proliferation of HT-29", "result": 800, "unit": "nM"}, {"measurement": "Concentration that effectively eliminates growth of tumor cells", "setting": "[1]; HT29, FIG. 11", "result": "< 5", "unit": "µM"}, {"measurement": "Mice weakly infected with HSV-2", "setting": "HSV-2; 10 mM P4N in PBS, local, female CF-1 mice, 10 per group, day 3 vaginal lavage", "result": "2 of 10"}, {"measurement": "Average scale of vaginal HSV-2 infection (cytopathic effect score)", "setting": "HSV-2; 10 mM P4N, 2.43 in the absence of P4N", "result": 0.19}, {"measurement": "Toxicity in animals", "setting": "HSV-2", "result": "no apparent sign of toxicity"}, {"measurement": "Toxicity in animals", "setting": "HSV-2; listed as P4N", "result": "little or no toxicity"}, {"measurement": "Stability in Milli-Q water (UV spectra)", "setting": "[2]", "result": "stable"}, {"measurement": "Effect on the growth of the cos cells", "setting": "COS cells", "result": "no effect"}, {"measurement": "IC50", "setting": "[3]; 48 hrs, 37° C.", "result": 1400, "unit": "nM"}, {"measurement": "Concentration that effectively eliminates growth of tumor cells", "setting": "[3]; MCF-7, FIG. 11", "result": "< 5", "unit": "µM"}, {"measurement": "Inhibition of rapidly dividing Vero cells", "setting": "[4]; FIG. 11", "result": "extremely effective"}, {"measurement": "Inhibition of stationary phase vero cells", "setting": "[4]; FIG. 11A", "result": "much less so"}]}]}
